From patent EP2459571B1, “NITROIMIDAZOOXAZINES AND THEIR USES IN ANTI-TUBERCULAR THERAPY” (priority 2009, dated 2011)
Values after ≈ are worked out from the molar mass of the structure shown.

Tests used:
[1] = system: M. tuberculosis bacteria in the non-replicating state; assay: microbe, parasite or virus in culture; format: cell-based; details: Mycobacterium tuberculosis, 264 h, low oxygen, 11 day, read-out: MIC LORA (anaerobic)
[2] = system: M. tuberculosis Erdman; parameters: species or system BALB/c mice; details: mouse, po, 100 mg/kg
[3] = system: replicating Mycobacterium tuberculosis; assay: MIC, microplate Alamar blue assay (MABA), 8 day; format: cell-based; details: 192 h, read-out: MIC MABA (aerobic)
[4] = in vivo; details: mouse, po, 40 mg/kg

Row | SMILES | MIC [1] [µM] | In vivo efficacy vs PA-824, Acute [2] | MIC [3] [µM] | AUC [4] [µg·h/mL] | Kp [4]
1 | O=[N+]([O-])c1cn2c(n1)OC[C@@H](OCc1ccc(-c3ccc(OC(F)(F)F)c(F)c3)cc1)C2 [compound 2, (6S)-6-{[3'-Fluoro-4'-(trifluoromethoxy)[1,1'-biphenyl]-4-yl]methoxy}-2-nitro-6,7-dihydro-5H-imidazo[2,1-b][1,3]oxazine] | 0.34 (≈ 0.154 µg/mL) | 419 | 0.03 (≈ 0.0136 µg/mL) | > 513 | > 1
2 | O=[N+]([O-])c1cn2c(n1)OC[C@@H](OCc1ccc(-c3ccc(C(F)(F)F)cn3)cc1F)C2 [compound 14, (6S)-6-({2-Fluoro-4-[5-(trifluoromethyl)-2-pyridinyl]benzyl}oxy)-2-nitro-6,7-dihydro-5H-imidazo[2,1-b][1,3]oxazine] | 2.3 (≈ 1.01 µg/mL) | 52 | 0.055 (≈ 0.0241 µg/mL) | 148 | –
3 | O=[N+]([O-])c1cn2c(n1)OC[C@@H](OCc1ccc(-c3ccc(OC(F)(F)F)cc3)c(F)c1)C2 [compound 15, (6S)-6-{[2-Fluoro-4'-(trifluoromethoxy)[1,1'-biphenyl]-4-yl]methoxy}-2-nitro-6,7-dihydro-5H-imidazo[2,1-b][1,3]oxazine] | 0.51 (≈ 0.231 µg/mL) | >933 | 0.055 (≈ 0.0249 µg/mL) | – | –
4 | O=[N+]([O-])c1cn2c(n1)OC[C@@H](OCc1cnc(-c3ccc(OC(F)(F)F)cc3)nc1)C2 [compound 16] | 1.8 (≈ 0.787 µg/mL) | >1120 | 0.027 (≈ 0.0118 µg/mL) | 131 | –
5 | O=[N+]([O-])c1cn2c(n1)OC[C@@H](OCc1ccc(C#Cc3ccc(OC(F)(F)F)cc3)cn1)C2 [compound 18, (6S)-2-Nitro-6-[(5-{[4-(trifluoromethoxy)phenyl]ethynyl}-2-pyridinyl)methoxy]-6,7-dihydro-5H-imidazo[2,1-b][1,3]oxazine] | 1.4 (≈ 0.645 µg/mL) | >933 | 0.02 (≈ 0.00921 µg/mL) | 235 | –
6 | O=[N+]([O-])c1cn2c(n1)OC[C@@H](OC/C=C/c1ccc(-c3ccc(OC(F)(F)F)cc3)cc1)C2 [compound 19, (6S)-2-Nitro-6-({(2E)-3-[4'-(trifluoromethoxy)[1,1'-biphenyl]-4-yl]-2-propenyl}oxy)-6,7-dihydro-5H-imidazo[2,1-b][1,3]oxazine] | > 64 | – | 0.063 (≈ 0.0291 µg/mL) | – | –
7 | O=[N+]([O-])c1cn2c(n1)OC[C@@H](OCc1ccc(-c3ccc(C(F)(F)F)nc3)cc1F)C2 [compound 23, (6S)-6-({2-Fluoro-4-[6-(trifluoromethyl)-3-pyridinyl]benzyl}oxy)-2-nitro-6,7-dihydro-5H-imidazo[2,1-b][1,3]oxazine] | 0.68 (≈ 0.298 µg/mL) | 8.8 | 0.13 (≈ 0.057 µg/mL) | 55.4 | –
8 | O=[N+]([O-])c1cn2c(n1)OC[C@@H](OCc1ccc(-c3ccc(F)cn3)cc1)C2 [compound 26, (6S)-6-{[4-(5-Fluoro-2-pyridinyl)benzyl]oxy}-2-nitro-6,7-dihydro-5H-imidazo[2,1-b][1,3]oxazine] | 1.3 (≈ 0.481 µg/mL) | – | 0.035 (≈ 0.013 µg/mL) | – | –
9 | O=[N+]([O-])c1cn2c(n1)OC[C@@H](OCc1cnn(-c3ccc(OC(F)(F)F)cc3)c1)C2 [compound 27] | 1.8 (≈ 0.766 µg/mL) | – | 0.15 (≈ 0.0638 µg/mL) | – | –
10 | O=[N+]([O-])c1cn2c(n1)OC[C@@H](OCc1ncc(-c3ccc(OC(F)(F)F)cc3)cn1)C2 [compound 29] | 1.9 (≈ 0.831 µg/mL) | – | 0.11 (≈ 0.0481 µg/mL) | – | –
11 | O=[N+]([O-])c1cn2c(n1)OC[C@@H](OCc1ccc(C#Cc3ccc(OC(F)(F)F)cc3)cc1)C2 [compound 32, (6S)-2-Nitro-6-[(4-{[4-(trifluoromethoxy)phenyl]ethynyl}benzyl)oxy]-6,7-dihydro-5H-imidazo[2,1-b][1,3]oxazine] | > 128 | – | 0.017 (≈ 0.00781 µg/mL) | – | –
12 | O=[N+]([O-])c1cn2c(n1)OC[C@@H](OCc1ccc(C#Cc3ccc(OC(F)(F)F)cc3)nc1)C2 [compound 33, (6S)-2-Nitro-6-[(6-{[4-(trifluoromethoxy)phenyl]ethynyl}-3-pyridinyl)methoxy]-6,7-dihydro-5H-imidazo[2,1-b][1,3]oxazine] | 0.94 (≈ 0.433 µg/mL) | – | 0.02 (≈ 0.00921 µg/mL) | – | –
